Data taken from ChEMBL document CHEMBL1149552, “Praziquantel derivatives I: Modification of the aromatic ring” (2007).
In brackets after ≈: the same amount, converted by molar mass.

Key:
Format in all cases: functional
[1] = test system: Schistosoma mansoni; assay: Antischistosomal activity against Schistosoma mansoni assessed as 100% killing of schistosomes
[2] = test system: Schistosoma mansoni; assay: Antischistosomal activity against Schistosoma mansoni assessed as complete spastic paralysis
[3] = test system: Schistosoma mansoni; assay: Antischistosomal activity against Schistosoma mansoni assessed as shcistomes paralysis relative to Praziquantel
[4] = test system: Schistosoma mansoni; assay: Antischistosomal activity against Schistosoma mansoni assessed as 100% killing of shcistomes relative to Praziquantel

Row | SMILES | MLC [1] [µM] | Activity [2] [µM] | Activity [3] [%] | Activity [4] [%]
1 | Nc1ccc(C(=O)N2CC(=O)N3CCc4ccccc4C3C2)cc1 (stereo unspecified) | 18 (≈ 5.78 µg/mL) | 7 | 14.3 | 16.6
2 | Nc1ccc2c(c1)C1CN(C(=O)C3CCCCC3)CC(=O)N1CC2 (stereo unspecified) | 28 (≈ 9.17 µg/mL) | 10 | 10 | 10.7
3 | O=C(C1CCCCC1)N1CC(=O)N2CCc3ccc([N+](=O)[O-])cc3C2C1 (stereo unspecified) | >300 | >300 | <0.3 | <1
4 | Nc1cccc(C(=O)N2CC(=O)N3CCc4ccccc4C3C2)c1 (stereo unspecified) | 12 (≈ 3.86 µg/mL) | 7 | 14.3 | 25
5 | O=C(C1CCCCC1)N1CC(=O)N2CCc3ccccc3C2C1 (stereo unspecified) [PRAZIQUANTEL] | 3 (≈ 0.937 µg/mL) | 1 | – | –
6 | CC(=O)Nc1ccc2c(c1)C1CN(C(=O)C3CCCCC3)CC(=O)N1CC2 (stereo unspecified) | >300 | >300 | <0.3 | <1
7 | O=C(C1CCC(O)CC1)N1CC(=O)N2CCc3ccccc3C2C1 (stereo unspecified) | 200 (≈ 65.7 µg/mL) | 75 | 1.3 | 1.5
